Results reported in ChEMBL document CHEMBL3124777, “Synthesis and biological evaluation of thiazoline derivatives as new antimicrobial and anticancer agents” (Eur J Med Chem, 2014).
Converted amounts (≈) assume the structure as drawn. The source made the active and inactive calls. The rule behind the calls is not given here.

Assays:
[1] = system: C6; experiment: Inhibition of DNA synthesis in rat C6 cells assessed as BrdU incorporation after 24 hrs by ELISA; format: functional, cell-based
[2] = system: Escherichia coli; experiment: Antimicrobial activity against Escherichia coli ATCC 25922 after 18 to 24 hrs by microbroth dilution method; format: functional
[3] = system: NIH3T3; experiment: Cytotoxicity against mouse NIH/3T3 cells after 24 hrs by MTT assay; format: cell-based; details: NIH3T3, 24 h
[4] = system: C6; experiment: Cytotoxicity against rat C6 cells assessed as cell viability at 6 ug/ml after 24 hrs by MTT assay relative to control; format: functional; details: C6, 24 h, read-out: Activity
[5] = system: Pseudomonas aeruginosa; experiment: Antimicrobial activity against Pseudomonas aeruginosa […] after 18 to 24 hrs by microbroth dilution method; format: functional
[6] = system: Fusarium verticillioides; experiment: Antimicrobial activity against Fusarium moniliforme NRRL 1866 after 48 to 72 hrs by microbroth dilution method; format: functional
[7] = system: Bacillus subtilis; experiment: Antimicrobial activity against Bacillus subtilis NRS-744 after 18 to 24 hrs by microbroth dilution method; format: functional
[8] = system: Fusarium solani; experiment: Antimicrobial activity against Fusarium solani NRRL 13414 after 48 to 72 hrs by microbroth dilution method; format: functional
[9] = system: C6; experiment: Cytotoxicity against rat C6 cells assessed as cell viability at 12 ug/ml after 24 hrs by MTT assay relative to control; format: functional; details: C6, 24 h, read-out: Activity
[10] = system: C6; experiment: Cytotoxicity against rat C6 cells assessed as cell viability at 50 ug/ml after 24 hrs by MTT assay relative to control; format: functional; details: C6, 24 h, read-out: Activity
[11] = system: C6; experiment: Cytotoxicity against rat C6 cells assessed as cell viability at 100 ug/ml after 24 hrs by MTT assay relative to control; format: functional; details: C6, 24 h, read-out: Activity
[12] = system: Micrococcus luteus; experiment: Antimicrobial activity against Micrococcus luteus NRLL B-4375 after 18 to 24 hrs by microbroth dilution method; format: functional
[13] = system: Aspergillus parasiticus; experiment: Antimicrobial activity against Aspergillus parasiticus NRRL 465 after 48 to 72 hrs by microbroth dilution method; format: functional
[14] = system: C6; experiment: Cytotoxicity against rat C6 cells after 24 hrs by MTT assay; format: functional, cell-based; details: C6, 24 h
[15] = system: Fusarium culmorum; experiment: Antimicrobial activity against wild type Fusarium culmorum after 48 to 72 hrs by microbroth dilution method; format: functional
[16] = system: C6; experiment: Inhibition of DNA synthesis in rat C6 cells assessed as BrdU incorporation at IC50 after 24 hrs by ELISA; format: functional, cell-based
[17] = system: Trichoderma harzianum; experiment: Antimicrobial activity against Trichoderma harzianum NRRL 20565 after 48 to 72 hrs by microbroth dilution method; format: functional
[18] = system: Listeria monocytogenes; experiment: Antimicrobial activity against Listeria monocytogenes ATCC 7644 after 18 to 24 hrs by microbroth dilution method; format: functional
[19] = system: C6; experiment: Cytotoxicity against rat C6 cells assessed as cell viability at 200 ug/ml after 24 hrs by MTT assay relative to control; format: functional; details: C6, 24 h, read-out: Activity
[20] = system: Staphylococcus aureus; experiment: Antimicrobial activity against Staphylococcus aureus NRRL B-767 after 18 to 24 hrs by microbroth dilution method; format: functional
[21] = system: C6; experiment: Cytotoxicity against rat C6 cells assessed as cell viability at 25 ug/ml after 24 hrs by MTT assay relative to control; format: functional; details: C6, 24 h, read-out: Activity
[22] = system: Penicillium chrysogenum; experiment: Antimicrobial activity against Penicillium chrysogenum NRRL 1951 after 48 to 72 hrs by microbroth dilution method; format: functional
[23] = system: Aspergillus ochraceus; experiment: Antimicrobial activity against Aspergillus ochraceus NRRL 3174 after 48 to 72 hrs by microbroth dilution method; format: functional
[24] = system: Candida albicans; experiment: Antimicrobial activity against Candida albicans ATCC 22019 after 18 to 24 hrs by microbroth dilution method; format: functional

| SMILES | inhibition [1] | MIC [2] [µg/mL] | IC50 [3] [µg/mL] | viability at 6 µg/mL [4] [%] | MIC [5] [µg/mL] | MIC [6] [µg/mL] | MIC [7] [µg/mL] | MIC [8] [µg/mL] | viability at 12 µg/mL [9] [%] | viability at 50 µg/mL [10] [%] | viability at 100 µg/mL [11] [%] | MIC [12] [µg/mL] | MIC [13] [µg/mL] | IC50 [14] [µg/mL] | MIC [15] [µg/mL] | inhibition [16] | MIC [17] [µg/mL] | MIC [18] [µg/mL] | viability at 200 µg/mL [19] [%] | MIC [20] [µg/mL] | also measured |
| --- | --- | --- | --- | --- | --- | --- | --- | --- | --- | --- | --- | --- | --- | --- | --- | --- | --- | --- | --- | --- | --- |
| Cc1ccc(-c2cs/c(=N/NC(=O)CSc3nnc(C)s3)n2-c2ccccc2)cc1 | Dose-dependent effect | 250 (≈ 551 µM) | 373 (≈ 823 µM) | 65.9 | 250 (≈ 551 µM) | 250 (≈ 551 µM) | 500 (≈ 1100 µM) | 250 (≈ 551 µM) | 58.3 | 40.6 | 31.5 | 250 (≈ 551 µM) | 250 (≈ 551 µM) | 25.3 (≈ 55.8 µM) | 250 (≈ 551 µM) | Active | 250 (≈ 551 µM) | 250 (≈ 551 µM) | 13.3 | 500 (≈ 1100 µM) | viability at 25 µg/mL [21]: 50.1%; MIC [22]: 250 µg/mL (≈ 551 µM); MIC [23]: 250 µg/mL (≈ 551 µM); MIC [24]: 250 µg/mL (≈ 551 µM) |
| O=C(CSc1nnnn1-c1ccccc1)N/N=c1/scc(-c2ccccc2)n1-c1ccccc1 | Dose-dependent effect | 250 (≈ 515 µM) | 417 (≈ 858 µM) | 52.1 | 250 (≈ 515 µM) | 250 (≈ 515 µM) | 500 (≈ 1030 µM) | 250 (≈ 515 µM) | 47.1 | 36.7 | 35.8 | 250 (≈ 515 µM) | 250 (≈ 515 µM) | 8.3 (≈ 17.1 µM) | 125 (≈ 257 µM) | Active | 125 (≈ 257 µM) | 250 (≈ 515 µM) | 22.6 | 250 (≈ 515 µM) | viability at 25 µg/mL [21]: 42.5%; MIC [22]: 250 µg/mL (≈ 515 µM); MIC [23]: 250 µg/mL (≈ 515 µM); MIC [24]: 250 µg/mL (≈ 515 µM) |
| Cc1nnc(SCC(=O)N/N=c2/scc(-c3ccc(Cl)cc3)n2-c2ccccc2)s1 | Dose-dependent effect | 250 (≈ 527 µM) | 253 (≈ 534 µM) | 82.8 | 250 (≈ 527 µM) | 250 (≈ 527 µM) | 250 (≈ 527 µM) | 250 (≈ 527 µM) | 76.6 | 37.9 | 34.1 | 250 (≈ 527 µM) | 250 (≈ 527 µM) | 28 (≈ 59.1 µM) | 250 (≈ 527 µM) | Active | 125 (≈ 264 µM) | 250 (≈ 527 µM) | 29 | 250 (≈ 527 µM) | viability at 25 µg/mL [21]: 53.3%; MIC [22]: 250 µg/mL (≈ 527 µM); MIC [23]: 250 µg/mL (≈ 527 µM); MIC [24]: 250 µg/mL (≈ 527 µM) |
| Cc1ccc(-c2cs/c(=N/NC(=O)CSc3nnnn3-c3ccccc3)n2-c2ccccc2)cc1 | Dose-dependent effect | 250 (≈ 500 µM) | > 500 | 66.8 | 250 (≈ 500 µM) | 250 (≈ 500 µM) | 250 (≈ 500 µM) | 250 (≈ 500 µM) | 55.1 | 29.5 | 28.5 | 250 (≈ 500 µM) | 250 (≈ 500 µM) | 14.7 (≈ 29.4 µM) | 125 (≈ 250 µM) | Active | 125 (≈ 250 µM) | 250 (≈ 500 µM) | 22.2 | 250 (≈ 500 µM) | viability at 25 µg/mL [21]: 38.8%; MIC [22]: 250 µg/mL (≈ 500 µM); MIC [23]: 250 µg/mL (≈ 500 µM); MIC [24]: 250 µg/mL (≈ 500 µM) |
| O=C(CSc1nnnn1-c1ccccc1)N/N=c1/scc(-c2ccc(Br)cc2)n1-c1ccccc1 | Dose-dependent effect | 250 (≈ 443 µM) | 433 (≈ 768 µM) | 61.8 | 250 (≈ 443 µM) | 250 (≈ 443 µM) | 250 (≈ 443 µM) | 250 (≈ 443 µM) | 58.6 | 32 | 24.3 | 250 (≈ 443 µM) | 250 (≈ 443 µM) | 21 (≈ 37.2 µM) | 250 (≈ 443 µM) | Active | 125 (≈ 221 µM) | 250 (≈ 443 µM) | 20.4 | 250 (≈ 443 µM) | viability at 25 µg/mL [21]: 47.9%; MIC [22]: 250 µg/mL (≈ 443 µM); MIC [23]: 250 µg/mL (≈ 443 µM); MIC [24]: 125 µg/mL (≈ 221 µM) |
| Cn1nnnc1SCC(=O)N/N=c1/scc(-c2ccc(C#N)cc2)n1-c1ccccc1 | Dose-dependent effect | 250 (≈ 557 µM) | 213 (≈ 476 µM) | 63.5 | 250 (≈ 557 µM) | 250 (≈ 557 µM) | 500 (≈ 1110 µM) | 250 (≈ 557 µM) | 53.9 | 35.6 | 30.9 | 250 (≈ 557 µM) | 250 (≈ 557 µM) | 23.3 (≈ 51.9 µM) | 250 (≈ 557 µM) | Active | 125 (≈ 279 µM) | 250 (≈ 557 µM) | 28.6 | 250 (≈ 557 µM) | viability at 25 µg/mL [21]: 43.9%; MIC [22]: 250 µg/mL (≈ 557 µM); MIC [23]: 250 µg/mL (≈ 557 µM); MIC [24]: 250 µg/mL (≈ 557 µM) |
| COc1ccc(-c2cs/c(=N/NC(=O)CSc3nnc(C)s3)n2-c2ccccc2)cc1 | Dose-dependent effect | 250 (≈ 532 µM) | 300 (≈ 639 µM) | 57.9 | 250 (≈ 532 µM) | 250 (≈ 532 µM) | 250 (≈ 532 µM) | 250 (≈ 532 µM) | 53.6 | 31.5 | 25.9 | 250 (≈ 532 µM) | 250 (≈ 532 µM) | 18.7 (≈ 39.8 µM) | 250 (≈ 532 µM) | Active | 125 (≈ 266 µM) | 250 (≈ 532 µM) | 22.2 | 250 (≈ 532 µM) | viability at 25 µg/mL [21]: 42.6%; MIC [22]: 250 µg/mL (≈ 532 µM); MIC [23]: 250 µg/mL (≈ 532 µM); MIC [24]: 250 µg/mL (≈ 532 µM) |
| O=C(CSc1nnnn1-c1ccccc1)N/N=c1/scc(-c2ccc(F)cc2)n1-c1ccccc1 | Dose-dependent effect | 250 (≈ 496 µM) | 207 (≈ 410 µM) | 74.9 | 250 (≈ 496 µM) | 250 (≈ 496 µM) | 500 (≈ 993 µM) | 250 (≈ 496 µM) | 60 | 43.7 | 35.8 | 250 (≈ 496 µM) | 250 (≈ 496 µM) | 24.3 (≈ 48.3 µM) | 125 (≈ 248 µM) | Active | 125 (≈ 248 µM) | 250 (≈ 496 µM) | 30.6 | 250 (≈ 496 µM) | viability at 25 µg/mL [21]: 49.3%; MIC [22]: 250 µg/mL (≈ 496 µM); MIC [23]: 250 µg/mL (≈ 496 µM); MIC [24]: 250 µg/mL (≈ 496 µM) |
